# What was measured:
# [1] = Test Example 1: Pharmacokinetic study in rats (intravenous); type: in vivo; settings: rat, SD rats, 5 mg/kg intravenous injection, plasma; for MRT last: read-out: MRT(0-t)
# Procedure: A proper amount of each of SMTP-7 and compound 1 was weighed out, and 2% (final volume) DMSO and 98% (final volume) normal saline were added. After they were well mixed by vortexing and ultrasonication, a 1 mg/mL clear solution was obtained for later use.
# SD Rats, at the Age of 6-8 Weeks, Weighing about 180-220 g.
# About 0.20 mL of blood was collected for each sample via the jugular vein or other suitable is routes, and sodium heparin was used as the anticoagulant. The blood was placed on ice immediately after the collection. The collection was performed at a total of 10 time points: before administration, and 5 min, 0.25 h, 0.5 h, 1 h, 2 h, 4 h, 6 h, 10 h and 24 h after administration. The collected blood samples were placed in heparin anticoagulant blood collection tubes and centrifuged at 6800 g at 2-8° C. for 6 min to separate plasma. The plasma samples were stored in a freezer at −80° C. before analysis.
# The plasma concentration of each test compound was determined. The analysis of quality control samples was performed while the samples were analyzed, and more than 66.7% of the quality control samples were required to have an accuracy of 80-120%.
# When plasma drug concentration-time curves were plotted, BLQ was recorded as 0. When the pharmacokinetic parameters were calculated, the concentration before administration was calculated as 0; BLQ before Cmax (including “No peak”) was calculated as 0; and BLQ that occurs after Cmax (including “No peak”) was excluded from the calculation. The following pharmacokinetic parameters were calculated from the plasma concentration data of different time points using the non-compartmental analysis method of Phoenix WinNonlin 7.0 software: AUC(0−t), AUC(0−∞), T1/2, MRT, Cmax, Tmax, etc.
# [2] = Test Example 2: Pharmacokinetic study in rats (intravenous); type: in vivo, SD rats; settings: 5 mg/kg intravenous administration
# Procedure: After they were well mixed by vortexing and ultrasonication, a 1 mg/mL clear solution was obtained for later use.
# SD Rats, at the Age of 6-8 Weeks, Weighing about 180-240 g.
# The pharmacokinetic parameters such as AUC(0−t), AUC(0−∞), T1/2, MRT, Cmax and Tmax were measured in rats according to the method of Test Example 1.
SMILES,AUC(0-t) [1] [ng·h/mL],Cmax [1] [ng/mL],Tmax [1] [min],half-life [1] [h],MRT last [1] [h],AUC (comparison in words) [2],T1/2 (comparison in words) [2]
"[2H]C([2H])(CC[C@@H](C(=O)O)N1Cc2c(cc(O)c3c2O[C@@](C)(CC/C=C(\C)CCC=C(C)C)[C@@H](O)C3)C1=O)N1Cc2c(cc(O)c3c2O[C@@](C)(CC/C=C(\C)CCC=C(C)C)[C@@H](O)C3)C1=O [Compound 1, δ-Deutero SMTP-7]",11300,19100,4.8,8.94 ± 0.61,3.06 ± 0.25,–,–
"[2H][C@](CCCN1Cc2c(cc(O)c3c2O[C@@](C)(CC/C=C(\C)CCC=C(C)C)[C@@H](O)C3)C1=O)(C(=O)O)N1Cc2c(cc(O)c3c2O[C@@](C)(CC/C=C(\C)CCC=C(C)C)[C@@H](O)C3)C1=O [Compound 2, α-Deutero SMTP-7]",–,–,–,–,–,did not greatly differ,did not greatly differ
"CC(C)=CCC/C(C)=C/CC[C@]1(C)Oc2c(c(O)cc3c2CN(CCC[C@@H](C(=O)O)N2Cc4c(cc(O)c5c4O[C@@](C)(CC/C=C(\C)CCC=C(C)C)[C@@H](O)C5)C2=O)C3=O)C[C@@H]1O [SMTP-7, Stachybotrys microspore triprenyl phenol-7]",8010,26300,4.8,6.69 ± 0.178,0.465 ± 0.08,did not greatly differ,did not greatly differ

# The remaining lines, values ahead:
AUC(0-t) [1] [ng·h/mL],Cmax [1] [ng/mL],Tmax [1] [min],half-life [1] [h],MRT last [1] [h],AUC (comparison in words) [2],T1/2 (comparison in words) [2],SMILES
–,–,–,–,–,did not greatly differ,did not greatly differ,"[2H]C([2H])(CCN1Cc2c(cc(O)c3c2O[C@@](C)(CC/C=C(\C)CCC=C(C)C)[C@@H](O)C3)C1=O)[C@@H](C(=O)O)N1Cc2c(cc(O)c3c2O[C@@](C)(CC/C=C(\C)CCC=C(C)C)[C@@H](O)C3)C1=O [Compound 3, β-Deutero SMTP-7]"
–,–,–,–,–,lower AUC than SMTP-7,lower T1/2,"[2H]C([2H])(C[C@@H](C(=O)O)N1Cc2c(cc(O)c3c2O[C@@](C)(CC/C=C(\C)CCC=C(C)C)[C@@H](O)C3)C1=O)CN1Cc2c(cc(O)c3c2O[C@@](C)(CC/C=C(\C)CCC=C(C)C)[C@@H](O)C3)C1=O [Compound 4, γ-Deutero SMTP-7]"

# Reference: patent publication US20240190896A1, “SMTP-7 DERIVATIVE AND USE THEREOF” (Shanghai Senhui Medicine Co., Ltd., priority 2021, published 2024)
